# Where two headings read alike, the source gives them in different places.
# Tested on: Vero cells
# Assay: Effect of cytoskeleton depolymerizing drugs on delivery peptide (DynPro) movement
# Format: cell-based, African green monkey
# [1] = Vero cells with 10 μM DynPro, Nocodazole 2.5 μM 30 min, LatrunculinA 0.1 μM
SMILES,effect of the drug on delivery peptide transport movement,effect of the drug on delivery peptide transport movement [1]
C/C1=C\[C@H](C)C[C@H](C)OC(=O)C[C@H](c2ccc(O)cc2)NC(=O)[C@@H](Cc2c(Br)[nH]c3ccccc23)N(C)C(=O)[C@H](C)NC(=O)[C@@H](C)C1 [Jasplakinolide],did not inhibit this movement,–
C/C1=C/C(=O)O[C@@H]2C[C@@H](CC[C@H](C)/C=C\C=C\CC1)O[C@@](O)([C@@H]1CSC(=O)N1)C2 [LatrunculinA],–,transport was preserved
COC(=O)Nc1nc2ccc(C(=O)c3cccs3)cc2[nH]1 [Nocodazole],–,abolished
